This is an account of results in ChEMBL document CHEMBL1153358, “Amide analogs of antifungal dioxane-triazole derivatives: synthesis and in vitro activities” (Bioorg Med Chem Lett, 2009).

Common to all, as to assay type: functional
Test [1] deals with Aspergillus fumigatus. Description: Antifungal activity against Aspergillus fumigatus SANK 10569.
For a further test, the system named is Nakaseomyces glabratus. Description: Antifungal activity against Candida glabrata ATCC 90030.
A further test relates to Cryptococcus neoformans. Description: Antifungal activity against Cryptococcus neoformans TIMM 1855.
Test [2] relates to Candida albicans. Description: Antifungal activity against Candida albicans SANK 51486.
In test [3] the test system is Candida albicans. Description: Antifungal activity against fluconazole-resistant Candida albicans TIMM3164.
Another test relates to Candida tropicalis. Description: Antifungal activity against Candida tropicalis ATCC 750.
For the next test, the system named is Aspergillus flavus. Description: Antifungal activity against Aspergillus flavus SANK 18497.
Test [4] concerns Aspergillus fumigatus. The test is described as follows: Antifungal activity against Aspergillus fumigatus ATCC 26430.
A further test relates to Pichia kudriavzevii. The test is described as follows: Antifungal activity against Candida krusei ATCC 6258.
Another test concerns Candida parapsilosis. Description: Antifungal activity against Candida parapsilosis ATCC 90018. The note with it: Lodderomyces parapsilosis.
For test [5], the system named is Candida albicans. The test is described as follows: Antifungal activity against Candida albicans ATCC 64550.
Test [6] has as its system Candida albicans. The test is described as follows: Antifungal activity against Candida albicans ATCC 24433.

Values after ≈ are worked out from the molar mass of the structure shown.

Usually MIC stands for the smallest concentration in the dilution series that meets the test's criterion for growth inhibition.

For the molecule `C[C@@H](S[C@H]1CO[C@H](c2ccc(C(=O)Nc3ccc(C#N)cc3F)cc2)OC1)[C@](O)(Cn1cncn1)c1ccc(F)cc1F`, the MIC with Aspergillus fumigatus [1] was 0.031 µg/mL (≈ 0.0509 µM); in the test with Nakaseomyces glabratus, above 4 µg/mL; in the test with Cryptococcus neoformans it was 0.063 µg/mL (≈ 0.103 µM); against Candida albicans [2], at most 0.008 µg/mL; against Candida albicans [3], 0.016 µg/mL (≈ 0.0262 µM); with Candida tropicalis it was 0.031 µg/mL (≈ 0.0509 µM). Also, the MIC in the test with Aspergillus flavus was determined as 0.125 µg/mL (≈ 0.205 µM).

Take `C[C@@H](S[C@H]1CO[C@H](/C=C/C(=O)Nc2ccc(F)cc2)OC1)[C@](O)(Cn1cncn1)c1ccc(F)cc1F`: the MIC against Aspergillus fumigatus [1] is 0.5 µg/mL (≈ 0.935 µM); in the test with Nakaseomyces glabratus, 4 µg/mL (≈ 7.48 µM); in the test with Cryptococcus neoformans, 0.125 µg/mL (≈ 0.234 µM); against Candida albicans [2], below 0.008 µg/mL; in the test with Candida albicans [3], 0.125 µg/mL (≈ 0.234 µM); in the test on Candida tropicalis it was 0.125 µg/mL (≈ 0.234 µM). The molecule also showed an MIC in the test on Aspergillus flavus of 4 µg/mL (≈ 7.48 µM).

Consider `C[C@@H](S[C@H]1CO[C@H](c2ccc(C(=O)Nc3ccncc3)cc2)OC1)[C@](O)(Cn1cncn1)c1ccc(F)cc1F`, for which the MIC with Aspergillus fumigatus [1] was 0.25 µg/mL (≈ 0.44 µM); against Nakaseomyces glabratus it was above 4 µg/mL; in the test on Cryptococcus neoformans, 0.125 µg/mL (≈ 0.22 µM); with Candida albicans [2], at most 0.008 µg/mL; against Candida albicans [3] it was 0.031 µg/mL (≈ 0.0546 µM); with Candida tropicalis it was 0.125 µg/mL (≈ 0.22 µM). Besides, in the test with Aspergillus flavus, inhibition of growth (MIC) required 0.25 µg/mL (≈ 0.44 µM).

`C[C@@H](S[C@H]1CO[C@H](c2ccc(C(=O)Nc3nccs3)cc2)OC1)[C@](O)(Cn1cncn1)c1ccc(F)cc1F`: the MIC against Aspergillus fumigatus [1] was 0.063 µg/mL (≈ 0.11 µM); against Nakaseomyces glabratus, 2 µg/mL (≈ 3.49 µM); against Cryptococcus neoformans it was 0.125 µg/mL (≈ 0.218 µM); with Candida albicans [2] it was at most 0.008 µg/mL; in the test on Candida albicans [3], 0.031 µg/mL (≈ 0.054 µM); against Candida tropicalis, 0.125 µg/mL (≈ 0.218 µM). Besides, in the test on Aspergillus flavus, the MIC came to 0.5 µg/mL (≈ 0.872 µM).

For `C[C@@H](S[C@H]1CO[C@H](c2ccc(C(=O)N3CCSCC3)cc2)OC1)[C@](O)(Cn1cncn1)c1ccc(F)cc1F`, the MIC was 0.5 µg/mL (≈ 0.867 µM) against Aspergillus fumigatus [1]; 4 µg/mL (≈ 6.94 µM) against Nakaseomyces glabratus; 0.031 µg/mL (≈ 0.0538 µM) with Cryptococcus neoformans; 0.016 µg/mL (≈ 0.0277 µM) with Candida albicans [2]; 0.125 µg/mL (≈ 0.217 µM) against Candida albicans [3]; 0.5 µg/mL (≈ 0.867 µM) in the test on Candida tropicalis. In addition, in the test on Aspergillus flavus, 4 µg/mL (≈ 6.94 µM) was the least that counted as inhibitory (MIC).

Consider `C[C@@H](S[C@H]1CO[C@H](/C=C/C=C/c2ccc(F)cc2)OC1)[C@](O)(Cn1cncn1)c1ccc(F)cc1F`, for which the MIC against Aspergillus fumigatus [1] was 0.063 µg/mL (≈ 0.122 µM); with Nakaseomyces glabratus, 1 µg/mL (≈ 1.93 µM); in the test with Cryptococcus neoformans, 0.016 µg/mL (≈ 0.0309 µM); against Candida albicans [2], at most 0.008 µg/mL; against Candida albicans [3], 0.063 µg/mL (≈ 0.122 µM); with Candida tropicalis it was 0.25 µg/mL (≈ 0.483 µM). In the test on Aspergillus flavus, this molecule gave an MIC of 0.25 µg/mL (≈ 0.483 µM).

Regarding `C[C@@H](S[C@H]1CO[C@H](c2ccc(C(=O)N3CCOCC3)cc2)OC1)[C@](O)(Cn1cncn1)c1ccc(F)cc1F`, the MIC is 4 µg/mL (≈ 7.13 µM) with Aspergillus fumigatus [1]; above 4 µg/mL in the test with Nakaseomyces glabratus; 0.125 µg/mL (≈ 0.223 µM) in the test with Cryptococcus neoformans; 0.063 µg/mL (≈ 0.112 µM) against Candida albicans [2]; 0.25 µg/mL (≈ 0.446 µM) against Candida albicans [3]; 1 µg/mL (≈ 1.78 µM) against Candida tropicalis. This molecule also registered an MIC against Aspergillus flavus above 4 µg/mL.

Consider `C[C@@H](S[C@H]1CO[C@H](c2ccc(C(=O)Nc3ccc(SC(F)(F)F)cc3)cc2)OC1)[C@](O)(Cn1cncn1)c1ccc(F)cc1F`, for which the MIC in the test on Aspergillus fumigatus [1] is 0.25 µg/mL (≈ 0.375 µM); against Nakaseomyces glabratus, 1 µg/mL (≈ 1.5 µM); against Cryptococcus neoformans, 0.016 µg/mL (≈ 0.024 µM); in the test on Candida albicans [2], at most 0.008 µg/mL; against Candida albicans [3], 0.031 µg/mL (≈ 0.0465 µM); against Candida tropicalis it was 0.031 µg/mL (≈ 0.0465 µM). The MIC with Aspergillus flavus came out at 0.5 µg/mL (≈ 0.75 µM).

In the case of `C[C@@H](S[C@H]1CO[C@H](c2cccc(C(=O)Nc3ccc(C#N)cc3)c2)OC1)[C@](O)(Cn1cncn1)c1ccc(F)cc1F`, the MIC was 2 µg/mL (≈ 3.38 µM) against Aspergillus fumigatus [1]; 2 µg/mL (≈ 3.38 µM) in the test on Nakaseomyces glabratus; 1 µg/mL (≈ 1.69 µM) against Cryptococcus neoformans; at most 0.008 µg/mL in the test on Candida albicans [2]; 0.25 µg/mL (≈ 0.423 µM) in the test on Candida albicans [3]; 1 µg/mL (≈ 1.69 µM) against Candida tropicalis. Also, the MIC with Aspergillus flavus was above 4 µg/mL.

For the molecule `C[C@@H](S[C@H]1CO[C@H](c2ccc3cc(C(=O)Nc4ccc(C#N)cc4)ccc3c2)OC1)[C@](O)(Cn1cncn1)c1ccc(F)cc1F`, the MIC is 0.063 µg/mL (≈ 0.0982 µM) with Aspergillus fumigatus [1]; above 4 µg/mL with Nakaseomyces glabratus; 0.063 µg/mL (≈ 0.0982 µM) in the test on Cryptococcus neoformans; at most 0.008 µg/mL in the test on Candida albicans [2]; 0.031 µg/mL (≈ 0.0483 µM) in the test with Candida albicans [3]; 0.016 µg/mL (≈ 0.0249 µM) with Candida tropicalis. The same molecule had a minimal inhibitory concentration (MIC) against Aspergillus flavus of 0.25 µg/mL (≈ 0.39 µM).

On to `C[C@@H](S[C@H]1CO[C@H](/C=C/S(=O)(=O)c2ccc(F)cc2)OC1)[C@](O)(Cn1cncn1)c1ccc(F)cc1F.O=C(O)/C=C\C(=O)O`, for which the minimum inhibitory concentration (MIC) in the test on Aspergillus fumigatus [1] was 4 µg/mL; against Nakaseomyces glabratus, 2 µg/mL; in the test with Cryptococcus neoformans, 0.125 µg/mL; in the test with Candida albicans [2], at most 0.008 µg/mL; in the test on Candida albicans [3], 0.125 µg/mL; against Candida tropicalis, 0.5 µg/mL. Further, the MIC in the test on Aspergillus flavus is above 4 µg/mL.

As to `OC(Cn1cncn1)(Cn1cncn1)c1ccc(F)cc1F` [FLUCONAZOLE], the MIC with Aspergillus fumigatus [1] was above 4 µg/mL; in the test on Nakaseomyces glabratus, above 4 µg/mL; against Aspergillus fumigatus [4] it was above 4 µg/mL; with Cryptococcus neoformans, above 4 µg/mL; against Pichia kudriavzevii, above 4 µg/mL; against Candida albicans [2] it was 0.25 µg/mL (≈ 0.816 µM). In addition, the MIC with Candida parapsilosis is 0.5 µg/mL (≈ 1.63 µM); against Candida albicans [3], above 4 µg/mL; against Candida albicans [5], above 4 µg/mL; in the test on Candida tropicalis, 2 µg/mL (≈ 6.53 µM); against Candida albicans [6] it was 0.5 µg/mL (≈ 1.63 µM); with Aspergillus flavus, above 4 µg/mL.
